ChEMBL document CHEMBL1127182, “DNA gyrase inhibitory and antibacterial activity of some flavones(1)” (Bioorg Med Chem Lett, 1993)
In brackets after ≈: the same amount, converted by molar mass. Several values for one entry are separate records, joined by “and”; a condition that tells them apart may be missing. Identical values can stand only once.

Experiments:
Escherichia coli [1] = test: Tested for antibacterial activity as minimum inhibitory concentration against Escherichia coli KL-16 in the absence of polymyxin B nonapeptide (PBMN) at 0 ug/mL; format: functional
Escherichia coli [2] = test: Tested for antibacterial activity as minimum inhibitory concentration against Escherichia coli KL-16 in the presence of polymyxin B nonapeptide (PBMN) at 1 ug/mL; format: functional
Escherichia coli [3] = test: Tested for antibacterial activity as minimum inhibitory concentration against Escherichia coli-ss in the absence of polymyxin B nonapeptide (PBMN) at 0 ug/mL; format: functional
Escherichia coli [4] = test: Tested for antibacterial activity as minimum inhibitory concentration against Escherichia coli-ss in the presence of polymyxin B nonapeptide (PBMN) at 1 ug/mL; format: functional
DNA gyrase = DNA gyrase (Escherichia coli, UniProt P0AES4+P0AES6); test: In vitro antibacterial activity was determined as inhibitory concentration causing 50% DNA-gyrase supercoiling inhibition (SCI); format: protein-complex assay
[5] = system: Stenotrophomonas maltophilia; test: Tested for antibacterial activity as minimum inhibitory concentration against Pseudomonas maltophilia 1057 in the presence of polymyxin B nonapeptide (PBMN) at 0 ug/mL; format: functional
[6] = system: Stenotrophomonas maltophilia; test: Tested for antibacterial activity as minimum inhibitory concentration against Pseudomonas maltophilia 1057 in the presence of polymyxin B nonapeptide (PBMN) at 1 ug/mL; format: functional
Salmonella typhimurium [7] = test: Tested for antibacterial activity as minimum inhibitory concentration against Salmonella Typhimurium 701 in the absence of polymyxin B nonapeptide (PBMN) at 0 ug/mL; format: functional, Salmonella enterica subsp. enterica serovar Typhimurium; details: Salmonella enterica
[8] = system: Staphylococcus epidermidis; test: Tested for antibacterial activity as minimum inhibitory concentration against Staphylococcus epidermidis strain OC2603; format: functional
Staphylococcus aureus = test: Tested for antibacterial activity as minimum inhibitory concentration against Staphylococcus aureus strain OC6538; format: functional
Salmonella typhimurium [9] = test: Tested for antibacterial activity as minimum inhibitory concentration against Salmonella Typhimurium 701 in the presence of polymyxin B nonapeptide (PBMN) at 1 ug/mL; format: functional, Salmonella enterica subsp. enterica serovar Typhimurium
[10] = Escherichia coli, read-out: MIC
[11] = Staphylococcus aureus, read-out: MIC
[12] = Salmonella enterica, read-out: MIC

COc1cc2oc(-c3ccccc3)cc(=O)c2c(O)c1O
MIC (Escherichia coli [1]): > 125 mg/L
MIC (Escherichia coli [2]): > 125 mg/L
MIC (Escherichia coli [3]; [10]): > 125 mg/L
MIC (Escherichia coli [4]; [10]): > 125 mg/L
IC50 (DNA gyrase): > 1760 µM
MIC [5]: > 125 mg/L
MIC [6]: > 125 mg/L
MIC (Salmonella typhimurium [7]): > 125 mg/L
MIC [8]: > 125 mg/L
MIC (Staphylococcus aureus; [11]): > 125 mg/L
MIC (Salmonella typhimurium [9]; [12]): > 125 mg/L

COc1cccc(-c2cc(=O)c3c(O)cc(O)cc3o2)c1
MIC (Escherichia coli [1]): > 125 mg/L
MIC (Escherichia coli [2]): > 125 mg/L
MIC (Escherichia coli [3]; [10]): > 125 mg/L
MIC (Escherichia coli [4]; [10]): > 125 mg/L
IC50 (DNA gyrase): > 1760 µM
MIC [5]: > 125 mg/L
MIC [6]: > 125 mg/L
MIC (Salmonella typhimurium [7]): > 125 mg/L
MIC [8]: > 125 mg/L
MIC (Staphylococcus aureus; [11]): > 125 mg/L
MIC (Salmonella typhimurium [9]; [12]): > 125 mg/L

COc1cc(-c2oc3cc(O)cc(O)c3c(=O)c2O)cc(OC)c1OC
MIC (Escherichia coli [1]): > 125 mg/L
MIC (Escherichia coli [2]): > 125 mg/L
MIC (Escherichia coli [3]; [10]): > 125 mg/L
MIC (Escherichia coli [4]; [10]): > 125 mg/L
IC50 (DNA gyrase): > 1390 µM
MIC [5]: > 125 mg/L
MIC [6]: > 125 mg/L
MIC (Salmonella typhimurium [7]): > 125 mg/L
MIC [8]: > 125 mg/L
MIC (Staphylococcus aureus; [11]): > 125 mg/L
MIC (Salmonella typhimurium [9]; [12]): > 125 mg/L

O=c1c(O)c(-c2cc(O)cc(O)c2)oc2cc(O)cc(O)c12
MIC (Escherichia coli [1]): > 125 mg/L
MIC (Escherichia coli [2]): 31.2 mg/L
MIC (Escherichia coli [3]; [10]): 125 mg/L (≈ 414 µM)
MIC (Escherichia coli [4]; [10]): 3.9 mg/L
IC50 (DNA gyrase): 1380 µM
MIC [5]: > 125 mg/L
MIC [6]: > 125 mg/L
MIC (Salmonella typhimurium [7]): > 125 mg/L
MIC [8]: 500 mg/L (≈ 1650 µM)
MIC (Staphylococcus aureus; [11]): 500 mg/L (≈ 1650 µM)
MIC (Salmonella typhimurium [9]; [12]): 7.8 mg/L

O=c1cc(-c2ccccc2)oc2c(O)c(O)ccc12 [7,8-DIHYDROXYFLAVONE]
MIC (Escherichia coli [1]): > 125 mg/L
MIC (Escherichia coli [2]): 62.5 mg/L
MIC (Escherichia coli [3]; [10]): 125 mg/L (≈ 492 µM)
MIC (Escherichia coli [4]; [10]): 7.8 mg/L
IC50 (DNA gyrase): 351 µM
MIC [5]: > 125 mg/L
MIC [6]: 125 mg/L
MIC (Salmonella typhimurium [7]): > 125 mg/L
MIC [8]: 31.2 mg/L (≈ 123 µM)
MIC (Staphylococcus aureus): 62.5 mg/L (≈ 246 µM)
MIC (Salmonella typhimurium [9]; Salmonella enterica): 15.6 mg/L

O=c1cc(-c2ccc(O)cc2)oc2cc(O)cc(O)c12 [APIGENIN]
MIC (Escherichia coli [1]): > 125 mg/L
MIC (Escherichia coli [2]): > 125 mg/L
MIC (Escherichia coli [3]; [10]): > 125 mg/L
MIC (Escherichia coli [4]; [10]): 7.8 mg/L
IC50 (DNA gyrase): 250 µM
MIC [5]: > 125 mg/L
MIC [6]: > 125 mg/L
MIC (Salmonella typhimurium [7]): > 125 mg/L
MIC [8]: > 125 mg/L
MIC (Staphylococcus aureus; [11]): > 125 mg/L
MIC (Salmonella typhimurium [9]; [12]): 15.6 mg/L

O=c1cc(-c2ccccc2)oc2cc(O)cc(O)c12 [CHRYSIN]
MIC (Escherichia coli [1]): > 125 mg/L
MIC (Escherichia coli [2]): > 125 mg/L
MIC (Escherichia coli [3]; [10]): > 125 mg/L
MIC (Escherichia coli [4]; [10]): > 125 mg/L
IC50 (DNA gyrase): > 1970 µM
MIC [5]: > 125 mg/L
MIC [6]: > 125 mg/L
MIC (Salmonella typhimurium [7]): > 125 mg/L
MIC [8]: > 125 mg/L
MIC (Staphylococcus aureus; [11]): > 125 mg/L
MIC (Salmonella typhimurium [9]; [12]): > 125 mg/L

O=c1oc2c(O)c(O)cc3c(=O)oc4c(O)c(O)cc1c4c23 [ELLAGIC ACID]
MIC (Escherichia coli [1]): > 125 mg/L
MIC (Escherichia coli [2]): 7.8 mg/L
MIC (Escherichia coli [3]; [10]): > 125 mg/L
MIC (Escherichia coli [4]; [10]): 2 mg/L
IC50 (DNA gyrase): 10.9 µM
MIC [5]: > 125 mg/L
MIC [6]: > 125 mg/L
MIC (Salmonella typhimurium [7]): > 125 mg/L
MIC [8]: > 125 mg/L
MIC (Staphylococcus aureus; [11]): > 125 mg/L
MIC (Salmonella typhimurium [9]; [12]): 31.2 mg/L

O=c1c(O)c(-c2ccc(O)c(O)c2)oc2cc(O)ccc12 [FISETIN]
MIC (Escherichia coli [1]): > 125 mg/L
MIC (Escherichia coli [2]): 15.6 mg/L
MIC (Escherichia coli [3]; [10]): 62.5 mg/L (≈ 218 µM)
MIC (Escherichia coli [4]; [10]): 3.9 mg/L
IC50 (DNA gyrase): 291 µM
MIC [5]: > 125 mg/L
MIC [6]: > 125 mg/L
MIC (Salmonella typhimurium [7]): > 125 mg/L
MIC [8]: > 125 mg/L
MIC (Staphylococcus aureus; [11]): > 125 mg/L
MIC (Salmonella typhimurium [9]; [12]): 31.2 mg/L

O=c1c(O)c(-c2ccccc2)oc2ccccc12 [FLAVONOL]
MIC (Escherichia coli [1]): > 125 mg/L
MIC (Escherichia coli [2]): > 125 mg/L
MIC (Escherichia coli [3]; [10]): > 125 mg/L
MIC (Escherichia coli [4]; [10]): > 125 mg/L
IC50 (DNA gyrase): > 2100 µM
MIC [5]: > 125 mg/L
MIC [6]: > 125 mg/L
MIC (Salmonella typhimurium [7]): > 125 mg/L
MIC [8]: > 125 mg/L
MIC (Staphylococcus aureus; [11]): > 125 mg/L
MIC (Salmonella typhimurium [9]; [12]): > 125 mg/L

O=c1c(O)c(-c2ccccc2)oc2cc(O)cc(O)c12 [GALANGIN]
MIC (Escherichia coli [1]): > 125 mg/L
MIC (Escherichia coli [2]): > 125 mg/L
MIC (Escherichia coli [3]; [10]): > 125 mg/L
MIC (Escherichia coli [4]; [10]): > 125 mg/L
IC50 (DNA gyrase): > 1850 µM
MIC [5]: > 125 mg/L
MIC [6]: > 125 mg/L
MIC (Salmonella typhimurium [7]): > 125 mg/L
MIC [8]: > 125 mg/L
MIC (Staphylococcus aureus; [11]): > 125 mg/L
MIC (Salmonella typhimurium [9]; [12]): > 125 mg/L

COc1ccc(-c2oc3cc(O)cc(O)c3c(=O)c2O)cc1 [KAEMPFERIDE]
MIC (Escherichia coli [1]): > 125 mg/L
MIC (Escherichia coli [2]): > 125 mg/L
MIC (Escherichia coli [3]; [10]): > 125 mg/L
MIC (Escherichia coli [4]; [10]): > 125 mg/L
IC50 (DNA gyrase): > 1670 µM
MIC [5]: > 125 mg/L
MIC [6]: > 125 mg/L
MIC (Salmonella typhimurium [7]): > 125 mg/L
MIC [8]: > 125 mg/L
MIC (Staphylococcus aureus; [11]): > 125 mg/L
MIC (Salmonella typhimurium [9]; [12]): > 125 mg/L

O=c1c(O)c(-c2cc(O)c(O)c(O)c2)oc2cc(O)cc(O)c12 [MYRICETIN]
MIC (Escherichia coli [1]): > 125 mg/L
MIC (Escherichia coli [2]): 15.6 mg/L
MIC (Escherichia coli [3]; [10]): 62.5 mg/L (≈ 196 µM)
MIC (Escherichia coli [4]; [10]): 3.9 mg/L
IC50 (DNA gyrase): 707 µM
MIC [5]: > 125 mg/L
MIC [6]: 125 mg/L
MIC (Salmonella typhimurium [7]): > 125 mg/L
MIC [8]: 62.5 mg/L (≈ 196 µM)
MIC (Staphylococcus aureus; [11]): 125 mg/L (≈ 393 µM)
MIC (Salmonella typhimurium [9]; [12]): 15.6 mg/L

CCn1cc(C(=O)O)c(=O)c2ccc(C)nc21 [NALIDIXIC ACID]
MIC (Escherichia coli [1]): 2 mg/L (≈ 8.61 µM)
MIC (Escherichia coli [2]): 0.5 mg/L
MIC (Escherichia coli [3]; [10]): 0.5 mg/L (≈ 2.15 µM)
MIC (Escherichia coli [4]; [10]): 0.125 mg/L
MIC [5]: 62.5 mg/L
MIC [6]: 15.6 mg/L
MIC (Salmonella typhimurium [7]): 3.9 mg/L (≈ 16.8 µM)
MIC [8]: 250 mg/L (≈ 1080 µM)
MIC (Staphylococcus aureus; [11]): 500 mg/L (≈ 2150 µM)
MIC (Salmonella typhimurium [9]; [12]): 2 mg/L

CC1COc2c(N3CCN(C)CC3)c(F)cc3c(=O)c(C(=O)O)cn1c23 (stereo not given) [OFLOXACIN]
MIC (Escherichia coli [1]): 0.0625 mg/L (≈ 0.173 µM)
MIC (Escherichia coli [2]): < 0.015 mg/L
MIC (Escherichia coli [3]; [10]): < 0.5 mg/L
MIC (Escherichia coli [4]; [10]): < 0.5 mg/L
MIC [5]: 2 mg/L
MIC [6]: 1 mg/L
MIC (Salmonella typhimurium [7]): 0.125 mg/L (≈ 0.346 µM)
MIC [8]: ≤ 0.5 mg/L
MIC (Staphylococcus aureus; [11]): ≤ 0.5 mg/L
MIC (Salmonella typhimurium [9]; [12]): 0.0625 mg/L

O=c1c(O)c(-c2ccc(O)c(O)c2)oc2cc(O)cc(O)c12 [QUERCETIN]
MIC (Escherichia coli [1]): > 125 mg/L
MIC (Escherichia coli [3]): 31.25 mg/L (≈ 103 µM)
MIC (Escherichia coli [3]; [10]): 62.5 mg/L (≈ 207 µM)
MIC (Escherichia coli [4]): 1 mg/L
MIC (Escherichia coli [4]; [10]): 2 mg/L
IC50 (DNA gyrase): 182 µM and 156 µM
MIC [5]: > 125 mg/L
MIC [6]: > 125 mg/L
MIC (Salmonella typhimurium [7]): > 125 mg/L
MIC (Staphylococcus aureus): >125 mg/L
MIC (Staphylococcus aureus; [11]): 62.5 mg/L (≈ 207 µM)
MIC (Salmonella typhimurium [9]): 15.6 mg/L and 31.25 mg/L
